Assay results taken from the supplement of paper PMC10307832.

Columns and labels:
Experiment in all cases: relative viability (nuclei count vs DMSO), 5 days (fraction); higher = more cells survive
Alisertib = compound: COc1cc(Nc2ncc3c(n2)-c2ccc(Cl)cc2C(c2c(F)cccc2OC)=NC3)ccc1C(=O)O [Alisertib]
Procedure, shortened: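 Viability here means nuclei in treated wells divided by nuclei in vehicle wells, reported as the median across plates. Only plates with control CV below 25% and at least one doubling passed. Lung cancer cell lines in 1536-well plates were exposed to five √10-spaced library-drug doses for 5 days and counted from 4× Hoechst images in MetaXpress.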

Alisertib + Bortezomib = compound: COc1cc(Nc2ncc3c(n2)-c2ccc(Cl)cc2C(c2c(F)cccc2OC)=NC3)ccc1C(=O)O [Alisertib] + CC(C)C[C@H](NC(=O)[C@H](Cc1ccccc1)NC(=O)c1cnccn1)B(O)O [Bortezomib] (partner 0.002 µM)
Procedure, shortened: (§1)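 Lung cancer cell lines in 1536-well plates were dosed by pin tool the day after seeding, either with one drug alone or with a fixed anchor-drug dose plus five library-drug doses (not always all listed) in √10 steps. After 5 days, cells were fixed and their nuclei stained in one step (final 0.05% Triton X-100, 1% formaldehyde, 1 ug/ml Hoechst), then counted on 4× images. Relative viability is the nuclei count in treated wells divided by that in vehicle wells. Values are medians of duplicate plates.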

Alisertib + Navitoclax = compound: COc1cc(Nc2ncc3c(n2)-c2ccc(Cl)cc2C(c2c(F)cccc2OC)=NC3)ccc1C(=O)O [Alisertib] + CC1(C)CCC(c2ccc(Cl)cc2)=C(CN2CCN(c3ccc(C(=O)NS(=O)(=O)c4ccc(N[C@H](CCN5CCOCC5)CSc5ccccc5)c(S(=O)(=O)C(F)(F)F)c4)cc3)CC2)C1 [Navitoclax] (partner 0.5 µM)
Procedure, shortened: as §1

Alisertib + Foretinib = compound: COc1cc(Nc2ncc3c(n2)-c2ccc(Cl)cc2C(c2c(F)cccc2OC)=NC3)ccc1C(=O)O [Alisertib] + COc1cc2c(Oc3ccc(NC(=O)C4(C(=O)Nc5ccc(F)cc5)CC4)cc3F)ccnc2cc1OCCCN1CCOCC1 [Foretinib] (partner 0.25 µM)
Procedure, shortened: as §1

Alisertib + Lapatinib = compound: COc1cc(Nc2ncc3c(n2)-c2ccc(Cl)cc2C(c2c(F)cccc2OC)=NC3)ccc1C(=O)O [Alisertib] + CS(=O)(=O)CCNCc1ccc(-c2ccc3ncnc(Nc4ccc(OCc5cccc(F)c5)c(Cl)c4)c3c2)o1 [Lapatinib] (partner 2 µM)
Procedure, shortened: as §1

Alisertib + Pictilisib = compound: COc1cc(Nc2ncc3c(n2)-c2ccc(Cl)cc2C(c2c(F)cccc2OC)=NC3)ccc1C(=O)O [Alisertib] + CS(=O)(=O)N1CCN(Cc2cc3nc(-c4cccc5[nH]ncc45)nc(N4CCOCC4)c3s2)CC1 [Pictilisib] (partner 1 µM)
Procedure, shortened: as §1

Alisertib + Crizotinib = compound: COc1cc(Nc2ncc3c(n2)-c2ccc(Cl)cc2C(c2c(F)cccc2OC)=NC3)ccc1C(=O)O [Alisertib] + C[C@@H](Oc1cc(-c2cnn(C3CCNCC3)c2)cnc1N)c1c(Cl)ccc(F)c1Cl [Crizotinib] (partner 1 µM)
Procedure, shortened: as §1

Alisertib + Linsitinib = compound: COc1cc(Nc2ncc3c(n2)-c2ccc(Cl)cc2C(c2c(F)cccc2OC)=NC3)ccc1C(=O)O [Alisertib] + C[C@]1(O)C[C@@H](c2nc(-c3ccc4ccc(-c5ccccc5)nc4c3)c3c(N)nccn32)C1 [Linsitinib] (partner 1 µM)
Procedure, shortened: as §1

Alisertib + Alpelisib = compound: COc1cc(Nc2ncc3c(n2)-c2ccc(Cl)cc2C(c2c(F)cccc2OC)=NC3)ccc1C(=O)O [Alisertib] + Cc1nc(NC(=O)N2CCC[C@H]2C(N)=O)sc1-c1ccnc(C(C)(C)C(F)(F)F)c1 [Alpelisib] (partner 2 µM)
Procedure, shortened: as §1

Alisertib + Vorinostat = compound: COc1cc(Nc2ncc3c(n2)-c2ccc(Cl)cc2C(c2c(F)cccc2OC)=NC3)ccc1C(=O)O [Alisertib] + O=C(CCCCCCC(=O)Nc1ccccc1)NO [Vorinostat] (partner 1 µM)
Procedure, shortened: as §1

Alisertib + Olaparib = compound: COc1cc(Nc2ncc3c(n2)-c2ccc(Cl)cc2C(c2c(F)cccc2OC)=NC3)ccc1C(=O)O [Alisertib] + O=C(c1cc(Cc2n[nH]c(=O)c3ccccc23)ccc1F)N1CCN(C(=O)C2CC2)CC1 [Olaparib] (partner 8 µM)
Procedure, shortened: as §1

IA-LM
relative viability (Alisertib; 0.005 µM): 0.795
relative viability (Alisertib; 0.01581 µM): 0.823
relative viability (Alisertib; 0.05 µM): 0.569
relative viability (Alisertib; 0.1581 µM): 0.357
relative viability (Alisertib; 0.5 µM): 0.0972
relative viability (Alisertib + Bortezomib; first compound 0.005 µM): 0.635
relative viability (Alisertib + Bortezomib; first compound 0.01581 µM): 0.578
relative viability (Alisertib + Bortezomib; first compound 0.05 µM): 0.465
relative viability (Alisertib + Bortezomib; first compound 0.1581 µM): 0.195
relative viability (Alisertib + Bortezomib; first compound 0.5 µM): 0.0832
relative viability (Alisertib + Navitoclax; first compound 0.005 µM): 0.654
relative viability (Alisertib + Navitoclax; first compound 0.01581 µM): 0.59
relative viability (Alisertib + Navitoclax; first compound 0.05 µM): 0.313
relative viability (Alisertib + Navitoclax; first compound 0.1581 µM): 0.164
relative viability (Alisertib + Navitoclax; first compound 0.5 µM): 0.0604
relative viability (Alisertib + Foretinib; first compound 0.005 µM): 1.11
relative viability (Alisertib + Foretinib; first compound 0.01581 µM): 1.09
relative viability (Alisertib + Foretinib; first compound 0.05 µM): 0.737
relative viability (Alisertib + Foretinib; first compound 0.1581 µM): 0.214
relative viability (Alisertib + Foretinib; first compound 0.5 µM): 0.0846
relative viability (Alisertib + Lapatinib; first compound 0.005 µM): 0.853
relative viability (Alisertib + Lapatinib; first compound 0.01581 µM): 0.91
relative viability (Alisertib + Lapatinib; first compound 0.05 µM): 0.309
relative viability (Alisertib + Lapatinib; first compound 0.1581 µM): 0.212
relative viability (Alisertib + Lapatinib; first compound 0.5 µM): 0.184
relative viability (Alisertib + Pictilisib; first compound 0.005 µM): 0.332
relative viability (Alisertib + Pictilisib; first compound 0.01581 µM): 0.25
relative viability (Alisertib + Pictilisib; first compound 0.05 µM): 0.201
relative viability (Alisertib + Pictilisib; first compound 0.1581 µM): 0.142
relative viability (Alisertib + Pictilisib; first compound 0.5 µM): 0.0927
relative viability (Alisertib + Crizotinib; first compound 0.005 µM): 0.831
relative viability (Alisertib + Crizotinib; first compound 0.01581 µM): 0.608
relative viability (Alisertib + Crizotinib; first compound 0.05 µM): 0.485
relative viability (Alisertib + Crizotinib; first compound 0.1581 µM): 0.256
relative viability (Alisertib + Crizotinib; first compound 0.5 µM): 0.104
relative viability (Alisertib + Linsitinib; first compound 0.005 µM): 0.478
relative viability (Alisertib + Linsitinib; first compound 0.01581 µM): 0.659
relative viability (Alisertib + Linsitinib; first compound 0.05 µM): 0.324
relative viability (Alisertib + Linsitinib; first compound 0.1581 µM): 0.223
relative viability (Alisertib + Linsitinib; first compound 0.5 µM): 0.0931
relative viability (Alisertib + Alpelisib; first compound 0.005 µM): 0.407
relative viability (Alisertib + Alpelisib; first compound 0.01581 µM): 0.739
relative viability (Alisertib + Alpelisib; first compound 0.05 µM): 0.462
relative viability (Alisertib + Alpelisib; first compound 0.1581 µM): 0.247
relative viability (Alisertib + Alpelisib; first compound 0.5 µM): 0.0598
relative viability (Alisertib + Vorinostat; first compound 0.005 µM): 0.986
relative viability (Alisertib + Vorinostat; first compound 0.01581 µM): 0.87
relative viability (Alisertib + Vorinostat; first compound 0.05 µM): 0.564
relative viability (Alisertib + Vorinostat; first compound 0.1581 µM): 0.189
relative viability (Alisertib + Vorinostat; first compound 0.5 µM): 0.0645
relative viability (Alisertib + Olaparib; first compound 0.005 µM): 0.671
relative viability (Alisertib + Olaparib; first compound 0.01581 µM): 0.674
relative viability (Alisertib + Olaparib; first compound 0.05 µM): 0.596
relative viability (Alisertib + Olaparib; first compound 0.1581 µM): 0.449
relative viability (Alisertib + Olaparib; first compound 0.5 µM): 0.0913
